Laboratory results reported in patent US11912701B2, “Protein kinase inhibitors for promoting liver regeneration or reducing or preventing hepatocyte death” (HEPAREGENIX GMBH, priority 2018, dated 2024).
Where two headings read alike, the source gives them in different places.

Key:
[1] = target: T1, MKK4 (Homo sapiens, UniProt P45985); test: KINOMEscan competition binding assay, MKK4; settings: residual percent of control binding (PoC) at 100 nM
T1 construct: S84/D399; host or cells: HEK-293
T1 sequence (P45985 84-399): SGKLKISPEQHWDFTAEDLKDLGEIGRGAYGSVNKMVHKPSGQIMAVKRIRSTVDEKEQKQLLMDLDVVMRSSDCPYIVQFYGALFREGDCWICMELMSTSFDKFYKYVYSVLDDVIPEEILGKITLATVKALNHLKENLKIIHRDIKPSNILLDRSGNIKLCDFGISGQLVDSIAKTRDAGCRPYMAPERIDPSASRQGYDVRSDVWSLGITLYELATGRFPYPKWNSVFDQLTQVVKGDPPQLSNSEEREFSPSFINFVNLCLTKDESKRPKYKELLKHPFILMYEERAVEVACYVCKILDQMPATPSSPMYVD
Procedure: (§1) The assay was performed by combining three components: DNA-tagged kinase; immobilized ligand; and a test compound. The ability of the test compound to compete with the immobilized ligand was measured via quantitative PCR of the DNA tag. The technology is described in detail in Fabian, M. A. et al. A small molecule-kinase interaction map for clinical kinase inhibitors. Nat. […] Nat.
(§2) For investigation of the affinity to MKK4, BRaf, MKK7 and JNK1, the kinases were produced in HEK-293 cells and subsequently tagged with DNA for qPCR detection. […] The liganded beads were blocked with excess biotin and washed with blocking buffer (SEABLOCK™ (Pierce), 1% BSA, 0.05% TWEEN®20, 1 mM DTT) to remove unbound ligand and to reduce nonspecific binding. […] All reactions were performed in polystyrene 96-well plates in a final volume of 0.135 mL. […] The kinase concentration in the eluates was measured by qPCR.
(§3) The test compounds were provided as 10 mM stock solutions. The test solutions at indicated final concentrations were prepared at DiscoverX.
Potency of representative examples against the protein kinases MKK4, BRaf, MKK7 and JNK1 expressed as residual percent of control binding (PoC), was determined at a concentration of 100 nM. The determined potencies are categorized as follows: […]

[2] = target: T2, BRaf (Homo sapiens, UniProt P15056); test: KINOMEscan competition binding assay, BRaf; settings: ratio PoC (off-target)/PoC (MKK4)
T2 construct: purchased ProQinase GmbH, Freiburg, Germany (33PanQinase Assay Service)
Procedure: as §1, §2, §3
(§4) Potency of representative examples against the protein kinases MKK4, BRaf, MKK7 and JNK1 expressed as residual percent of control binding (PoC), was determined at a concentration of 100 nM. The determined potencies are categorized as follows:
(§5) The binding selectivity of representative examples against the protein kinases BRaf, MKK7 and JNK1, altogether denominated as “off-targets” is determined by the ratios of PoC (off-target)/PoC (MKK4).

[3] = target: T3, MKK4 (Homo sapiens, UniProt P45985); test: 33PanQinase enzyme assay, MKK4; format: biochemical; settings: for remaining activity at 0.1 µM: read-out: Potency MKK4 (residual activity, assay at single concentration); for IC50: assay 'IC50', read-out: Potency MKK4 (IC50)
T3 construct: purchased ProQinase GmbH, Freiburg, Germany (33PanQinase Assay Service)
T3 sequence (P45985 1-399): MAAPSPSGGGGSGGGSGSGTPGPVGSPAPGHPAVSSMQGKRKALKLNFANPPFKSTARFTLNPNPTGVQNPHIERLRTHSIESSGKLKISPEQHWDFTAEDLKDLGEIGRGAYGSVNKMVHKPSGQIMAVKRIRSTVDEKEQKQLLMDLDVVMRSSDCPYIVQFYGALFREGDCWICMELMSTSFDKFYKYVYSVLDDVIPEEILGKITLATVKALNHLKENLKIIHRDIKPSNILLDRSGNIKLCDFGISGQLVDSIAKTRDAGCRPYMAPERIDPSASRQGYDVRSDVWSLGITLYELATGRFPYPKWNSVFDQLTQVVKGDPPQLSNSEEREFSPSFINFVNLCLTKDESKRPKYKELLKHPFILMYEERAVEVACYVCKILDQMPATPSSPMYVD
Procedure, shortened: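 Radiometric 33PanQinase assay: kinase, substrate, ATP and compound in standard buffer, 60 min at 30 °C; 33Pi incorporation read by scintillation counting.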

[4] = target: T4, MKK7 (Homo sapiens, UniProt O14733); test: KINOMEscan competition binding assay, MKK7; design: M1/R419; host or cells: HEK-293; settings: ratio PoC (off-target)/PoC (MKK4)
T4 sequence (O14733 1-419): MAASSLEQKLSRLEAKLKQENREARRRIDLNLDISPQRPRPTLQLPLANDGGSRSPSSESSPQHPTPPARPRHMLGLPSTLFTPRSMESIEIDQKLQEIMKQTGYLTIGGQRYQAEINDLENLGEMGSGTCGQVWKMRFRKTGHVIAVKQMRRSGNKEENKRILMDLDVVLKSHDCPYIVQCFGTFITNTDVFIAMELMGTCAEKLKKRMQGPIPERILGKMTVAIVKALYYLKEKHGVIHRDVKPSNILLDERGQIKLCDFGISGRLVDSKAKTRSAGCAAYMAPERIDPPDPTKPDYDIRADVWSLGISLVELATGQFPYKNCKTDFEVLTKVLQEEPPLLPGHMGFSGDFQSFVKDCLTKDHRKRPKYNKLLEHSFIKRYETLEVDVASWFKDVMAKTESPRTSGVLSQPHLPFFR
Procedure: as §1, §2, §3, §4, §5

[5] = target: JNK1 (Homo sapiens, UniProt P45983); test: KINOMEscan competition binding assay, JNK1; design: M1/Q384; host or cells: HEK-293; settings: ratio PoC (off-target)/PoC (MKK4)
Procedure: as §1, §2, §3, §4, §5

JNK1, sequence (P45983 1-384 isoform P45983-2): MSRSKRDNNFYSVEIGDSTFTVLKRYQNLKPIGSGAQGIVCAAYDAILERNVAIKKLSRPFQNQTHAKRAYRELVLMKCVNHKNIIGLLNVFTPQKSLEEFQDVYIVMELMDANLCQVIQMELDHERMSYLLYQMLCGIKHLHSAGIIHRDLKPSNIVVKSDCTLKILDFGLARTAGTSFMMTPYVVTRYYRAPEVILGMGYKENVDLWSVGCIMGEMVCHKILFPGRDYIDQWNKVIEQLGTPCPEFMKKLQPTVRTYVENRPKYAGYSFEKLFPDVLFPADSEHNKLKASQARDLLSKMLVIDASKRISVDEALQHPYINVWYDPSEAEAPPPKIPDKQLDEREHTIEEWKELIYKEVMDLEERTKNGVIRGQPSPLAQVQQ
T2 sequence (P15056 whole entry, species assumed): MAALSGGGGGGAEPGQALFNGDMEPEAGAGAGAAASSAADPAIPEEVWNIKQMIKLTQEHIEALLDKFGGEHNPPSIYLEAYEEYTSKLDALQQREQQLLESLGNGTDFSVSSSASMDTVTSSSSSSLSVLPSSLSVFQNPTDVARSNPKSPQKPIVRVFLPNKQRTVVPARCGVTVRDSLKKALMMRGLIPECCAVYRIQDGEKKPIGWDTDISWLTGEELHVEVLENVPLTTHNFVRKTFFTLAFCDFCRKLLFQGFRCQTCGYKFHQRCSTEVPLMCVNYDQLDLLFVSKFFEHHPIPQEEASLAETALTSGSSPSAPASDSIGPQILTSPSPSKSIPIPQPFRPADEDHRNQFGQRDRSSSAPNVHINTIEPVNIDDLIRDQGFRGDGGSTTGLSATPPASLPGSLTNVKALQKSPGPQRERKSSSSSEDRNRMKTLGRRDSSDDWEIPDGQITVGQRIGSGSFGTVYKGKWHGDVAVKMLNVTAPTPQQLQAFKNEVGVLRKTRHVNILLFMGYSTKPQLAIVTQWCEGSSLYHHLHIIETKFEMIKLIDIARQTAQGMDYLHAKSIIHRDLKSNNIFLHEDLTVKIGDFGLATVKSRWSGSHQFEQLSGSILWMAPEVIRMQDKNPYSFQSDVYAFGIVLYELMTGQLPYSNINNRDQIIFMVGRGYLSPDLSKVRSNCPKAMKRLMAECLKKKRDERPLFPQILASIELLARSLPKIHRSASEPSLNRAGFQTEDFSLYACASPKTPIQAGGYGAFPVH

SMILES | MKK4 [% Ctrl @ 100 nM [1] | selectivity based on % Ctrl @100 nM vs. Braf [2] | remaining activity at 0.1 µM ([3]; single concentration 100 nM) [%] | selectivity based on % Ctrl @100 nM vs. MKK7 [4] | selectivity based on % Ctrl @100 nM vs. JNK1 [5] | remaining activity at 0.1 µM [3] [%] | IC50 [3] [µM]
CCCS(=O)(=O)Nc1ccc(F)c(C(=O)c2c[nH]c3ncc(-c4ccc(F)cc4F)cc23)c1F [Example 33, N-(3-(5N-(2,4-difluorophenyl)-1H-pyrrolo[2,3-b]pyridine-3-carbonyl)-2,4-difluorophenyl)propane-1-sulfonamide] | + (3 ≤ PoC < 30) | ++ (100 ≥ ratio > 10) | 70 to 90 | ++ (100 ≥ ratio > 10) | ++ (100 ≥ ratio > 10) |  | 
CCCS(=O)(=O)Nc1ccc(F)c(C(=O)c2c[nH]c3ncc(-c4ccccc4F)cc23)c1F [Example 34, N-(2,4-difluoro-3-(5-(2-fluorophenyl)-1H-pyrrolo[2,3-b]pyridine-3-carbonyl)phenyl)propane-1-sulfonamide] | + (3 ≤ PoC < 30) | ++ (100 ≥ ratio > 10) | 70 to 90 | ++ (100 ≥ ratio > 10) | ++ (100 ≥ ratio > 10) |  | 
Cc1cccc(CS(=O)(=O)Nc2ccc(F)c(C(=O)c3c[nH]c4ncc(-c5ccc(Cl)cc5)cc34)c2F)c1 [Example 37, N-(3-(5-(4-chlorophenyl)-1H-pyrrolo[2,3-b]pyridine-3-carbonyl)-2,4-difluoro-phenyl)-1-(m-tolyl)methanesulfonamide] | + (3 ≤ PoC < 30) | + (10 ≥ ratio > 3) |  | + (10 ≥ ratio > 3) | + (10 ≥ ratio > 3) | 70 to 90 | 
Cc1ccc(CS(=O)(=O)Nc2ccc(F)c(C(=O)c3c[nH]c4ncc(-c5ccc(Cl)cc5)cc34)c2F)cc1 [Example 38, N-(3-(5-(4-chlorophenyl)-1H-pyrrolo[2,3-b]pyridine-3-carbonyl)-2,4-difluoro-phenyl)-1-(p-tolyl)methanesulfonamide] | + (3 ≤ PoC < 30) | + (10 ≥ ratio > 3) |  | + (10 ≥ ratio > 3) | + (10 ≥ ratio > 3) | 70 to 90 | 
O=C(c1c(F)ccc(NS(=O)(=O)Cc2ccccc2)c1F)c1c[nH]c2ncc(-c3ccc(OCC(O)CO)cc3)cc12 (centres unmarked) [Example 40, N-(3-(5-(4-(2,3-dihydroxypropoxy)phenyl)-1H-pyrrolo [2,3-b]pyridine-3-carbonyl)-2,4-difluorophenyl)-1-phenylmethanesulfonamide] | +++ (PoC < 1) | +++ (Ratio > 100) | 70 to 90 | +++ (Ratio > 100) | +++ (Ratio > 100) |  | 
O=C(c1c(F)ccc(NS(=O)(=O)Cc2ccccc2)c1F)c1c[nH]c2ncc(-c3ccc(OCC(O)CO)cc3Cl)cc12 (centres unmarked) [Example 41, N-(3-(5-(2-chloro-4-(2,3-dihydroxypropoxy)phenyl)-1H-pyrrolo[2,3-b]pyridine-3-carbonyl)-2,4-difluorophenyl)-1-phenylmethane-sulfonamide] | ++ (1 ≤ PoC < 3) | ++ (100 ≥ ratio > 10) | 70 to 90 | ++ (100 ≥ ratio > 10) | ++ (100 ≥ ratio > 10) |  | 
CCCS(=O)(=O)Nc1ccc(F)c(C(=O)c2c[nH]c3ncc(-c4ccccn4)cc23)c1F [Example 47] | ++ (1 ≤ PoC < 3) | + (10 ≥ ratio > 3) |  | ++ (100 ≥ ratio > 10) | ++ (100 ≥ ratio > 10) |  | 1 to 10
CCCS(=O)(=O)Nc1ccc(F)c(C(=O)c2c[nH]c3ncc(-c4ccc5ccsc5c4)cc23)c1F [Example 51] | + (3 ≤ PoC < 30) | ◯ (3 ≥ Ratio) | 70 to 90 | + (10 ≥ ratio > 3) | ◯ (3 ≥ Ratio) |  | 
CCCS(=O)(=O)Nc1ccc(F)c(C(=O)c2c[nH]c3ncc(-c4ccc5ccoc5c4)cc23)c1F [Example 52] | + (3 ≤ PoC < 30) | ◯ (3 ≥ Ratio) | 70 to 90 | ++ (100 ≥ ratio > 10) | ++ (100 ≥ ratio > 10) |  | 
CCCS(=O)(=O)Nc1ccc(Br)c(C(=O)c2c[nH]c3ncc(-c4ccc(Cl)cc4)cc23)c1F [Example 60, N-(4-bromo-3-(5-(4-chlorophenyl)-1H-pyrrolo[2,3-b]pyridine-3-carbonyl)-2-fluorophenyl)propane-1-sulfonamide] | + (3 ≤ PoC < 30) | ++ (100 ≥ ratio > 10) |  | ++ (100 ≥ ratio > 10) | ++ (100 ≥ ratio > 10) |  | 1 to 10
CCCS(=O)(=O)Nc1ccc(C#N)c(C(=O)c2c[nH]c3ncc(-c4ccc(Cl)cc4)cc23)c1F [Example 61, N-(3-(5-(4-chlorophenyl)-1H-pyrrolo[2,3-b]pyridine-3-carbonyl)-4-cyano-2-fluorophenyl)propane-1-sulfonamide] | ◯ (30 ≤ PoC) | ◯ (3 ≥ Ratio) | > 90 | + (10 ≥ ratio > 3) | + (10 ≥ ratio > 3) |  | 
CCCS(=O)(=O)Nc1ccc(C#N)c(C(=O)c2c[nH]c3ncc(-c4ccc(Cl)cc4)cc23)c1C#N [Example 62, N-(3-(5-(4-chlorophenyl)-1H-pyrrolo[2,3-b]pyridine-3-carbonyl)-2,4-dicyanophenyl)propane-1-sulfonamide] | ◯ (30 ≤ PoC) | ◯ (3 ≥ Ratio) | > 90 | ◯ (3 ≥ Ratio) | ◯ (3 ≥ Ratio) |  | 
CCCS(=O)(=O)Nc1cccc(C(=O)c2c[nH]c3ncc(-c4ccc(Cl)cc4)cc23)c1C#N [Example 63, N-(3-(5-(4-chlorophenyl)-1H-pyrrolo[2,3-b]pyridine-3-carbonyl)-2-cyanophenyl)propane-1-sulfonamide] | ◯ (30 ≤ PoC) | ◯ (3 ≥ Ratio) | 50 to 70 | ◯ (3 ≥ Ratio) | ◯ (3 ≥ Ratio) |  | 
